In patent US20130115171A1, “NAV1.7-RELATED ASSAYS” (priority 2011, published 2013):
Entries after “also recorded” stand apart in the source; their conditions may differ. Where two headings read alike, the source gives them in different places.

Legend:
male CD1 mice = type: in vivo, mouse
hNaV1.7 = hNaV1.7 (Homo sapiens, UniProt Q15858)
male rats = conditions: rat, in vivo
Protocol: Veratridine was injected intra-plantar at 30 micrograms.
Known preclinical and clinical analgesics were tested to see if they could prevent veratridine-induced behaviors.

NaV1.6 = NaV1.6 (Rattus norvegicus, UniProt O88420); conditions: read-out: TTX IC50; cited from earlier work
NaV1.3 = NaV1.3 (Rattus norvegicus, UniProt P08104); conditions: read-out: TTX IC50; cited from earlier work
NaV1.4 = NaV1.4 (Rattus norvegicus, UniProt P15390); conditions: read-out: TTX IC50; cited from earlier work
NaV1.8 = NaV1.8 (Rattus norvegicus, UniProt Q62968); conditions: read-out: TTX IC50; cited from earlier work
NaV1.7 [1] = target: NaV1.7 (Rattus norvegicus, UniProt O08562); conditions: read-out: TTX IC50; cited from earlier work
NaV1.7 [2] = type: in vivo, mouse; conditions: for Flinching response to paw injection: one microgram
Text: Activation of one, some, or all of the nine sodium channel isoforms might produce painful behaviors. […] All behavioral experiments were done with the observer blinded as to the mouse genotype or treatment.

Chain of hNaV1.7 (Q15858 whole entry): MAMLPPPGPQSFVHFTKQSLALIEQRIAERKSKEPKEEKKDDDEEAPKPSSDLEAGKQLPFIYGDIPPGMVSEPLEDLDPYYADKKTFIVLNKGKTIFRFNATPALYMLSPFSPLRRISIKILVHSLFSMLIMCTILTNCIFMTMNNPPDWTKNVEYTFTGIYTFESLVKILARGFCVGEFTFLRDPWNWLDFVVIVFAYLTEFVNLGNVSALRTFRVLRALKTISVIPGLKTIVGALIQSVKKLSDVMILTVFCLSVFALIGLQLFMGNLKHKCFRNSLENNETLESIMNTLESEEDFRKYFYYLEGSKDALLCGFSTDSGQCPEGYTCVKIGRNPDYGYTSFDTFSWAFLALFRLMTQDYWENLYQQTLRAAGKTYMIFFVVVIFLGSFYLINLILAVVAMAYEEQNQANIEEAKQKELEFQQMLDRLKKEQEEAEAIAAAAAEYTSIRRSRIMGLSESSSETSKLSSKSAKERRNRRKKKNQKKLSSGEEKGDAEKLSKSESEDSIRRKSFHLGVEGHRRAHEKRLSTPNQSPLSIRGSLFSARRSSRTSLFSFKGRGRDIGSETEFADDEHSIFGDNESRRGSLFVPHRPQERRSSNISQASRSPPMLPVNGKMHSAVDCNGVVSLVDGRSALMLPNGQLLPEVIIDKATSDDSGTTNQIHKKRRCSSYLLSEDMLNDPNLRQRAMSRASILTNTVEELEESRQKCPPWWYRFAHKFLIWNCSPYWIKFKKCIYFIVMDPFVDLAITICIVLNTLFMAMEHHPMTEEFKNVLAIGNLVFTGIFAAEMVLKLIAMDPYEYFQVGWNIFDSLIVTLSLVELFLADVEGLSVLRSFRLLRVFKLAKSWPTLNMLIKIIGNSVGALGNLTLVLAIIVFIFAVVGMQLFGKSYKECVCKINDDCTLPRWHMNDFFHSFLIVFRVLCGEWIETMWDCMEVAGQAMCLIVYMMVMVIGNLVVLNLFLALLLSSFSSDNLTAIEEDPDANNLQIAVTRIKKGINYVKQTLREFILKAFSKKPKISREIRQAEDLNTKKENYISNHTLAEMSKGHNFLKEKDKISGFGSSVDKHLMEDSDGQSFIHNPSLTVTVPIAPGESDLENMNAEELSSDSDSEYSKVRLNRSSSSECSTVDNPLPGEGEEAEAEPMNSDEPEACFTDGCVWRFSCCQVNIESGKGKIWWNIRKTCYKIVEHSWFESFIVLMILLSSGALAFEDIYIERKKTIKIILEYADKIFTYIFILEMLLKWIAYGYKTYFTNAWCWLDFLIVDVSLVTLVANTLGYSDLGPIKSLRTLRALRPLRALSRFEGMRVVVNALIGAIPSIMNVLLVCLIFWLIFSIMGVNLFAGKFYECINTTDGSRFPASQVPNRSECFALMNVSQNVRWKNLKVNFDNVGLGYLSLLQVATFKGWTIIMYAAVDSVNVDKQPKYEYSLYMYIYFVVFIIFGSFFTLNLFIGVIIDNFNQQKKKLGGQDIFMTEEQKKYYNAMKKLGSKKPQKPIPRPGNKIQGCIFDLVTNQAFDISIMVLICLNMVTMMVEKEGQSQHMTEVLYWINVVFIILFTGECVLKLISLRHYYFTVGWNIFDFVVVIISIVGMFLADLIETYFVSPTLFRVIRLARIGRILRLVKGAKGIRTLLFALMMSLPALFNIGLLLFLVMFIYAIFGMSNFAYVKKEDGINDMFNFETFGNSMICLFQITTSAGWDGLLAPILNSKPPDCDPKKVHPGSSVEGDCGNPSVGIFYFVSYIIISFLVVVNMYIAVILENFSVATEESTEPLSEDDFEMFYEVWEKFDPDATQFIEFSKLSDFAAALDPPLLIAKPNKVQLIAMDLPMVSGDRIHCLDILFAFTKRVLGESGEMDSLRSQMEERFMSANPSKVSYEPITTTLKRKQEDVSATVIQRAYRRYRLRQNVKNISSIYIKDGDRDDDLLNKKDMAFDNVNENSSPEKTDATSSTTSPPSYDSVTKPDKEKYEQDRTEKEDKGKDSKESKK
Chain of NaV1.3 (P08104 whole entry, looked up): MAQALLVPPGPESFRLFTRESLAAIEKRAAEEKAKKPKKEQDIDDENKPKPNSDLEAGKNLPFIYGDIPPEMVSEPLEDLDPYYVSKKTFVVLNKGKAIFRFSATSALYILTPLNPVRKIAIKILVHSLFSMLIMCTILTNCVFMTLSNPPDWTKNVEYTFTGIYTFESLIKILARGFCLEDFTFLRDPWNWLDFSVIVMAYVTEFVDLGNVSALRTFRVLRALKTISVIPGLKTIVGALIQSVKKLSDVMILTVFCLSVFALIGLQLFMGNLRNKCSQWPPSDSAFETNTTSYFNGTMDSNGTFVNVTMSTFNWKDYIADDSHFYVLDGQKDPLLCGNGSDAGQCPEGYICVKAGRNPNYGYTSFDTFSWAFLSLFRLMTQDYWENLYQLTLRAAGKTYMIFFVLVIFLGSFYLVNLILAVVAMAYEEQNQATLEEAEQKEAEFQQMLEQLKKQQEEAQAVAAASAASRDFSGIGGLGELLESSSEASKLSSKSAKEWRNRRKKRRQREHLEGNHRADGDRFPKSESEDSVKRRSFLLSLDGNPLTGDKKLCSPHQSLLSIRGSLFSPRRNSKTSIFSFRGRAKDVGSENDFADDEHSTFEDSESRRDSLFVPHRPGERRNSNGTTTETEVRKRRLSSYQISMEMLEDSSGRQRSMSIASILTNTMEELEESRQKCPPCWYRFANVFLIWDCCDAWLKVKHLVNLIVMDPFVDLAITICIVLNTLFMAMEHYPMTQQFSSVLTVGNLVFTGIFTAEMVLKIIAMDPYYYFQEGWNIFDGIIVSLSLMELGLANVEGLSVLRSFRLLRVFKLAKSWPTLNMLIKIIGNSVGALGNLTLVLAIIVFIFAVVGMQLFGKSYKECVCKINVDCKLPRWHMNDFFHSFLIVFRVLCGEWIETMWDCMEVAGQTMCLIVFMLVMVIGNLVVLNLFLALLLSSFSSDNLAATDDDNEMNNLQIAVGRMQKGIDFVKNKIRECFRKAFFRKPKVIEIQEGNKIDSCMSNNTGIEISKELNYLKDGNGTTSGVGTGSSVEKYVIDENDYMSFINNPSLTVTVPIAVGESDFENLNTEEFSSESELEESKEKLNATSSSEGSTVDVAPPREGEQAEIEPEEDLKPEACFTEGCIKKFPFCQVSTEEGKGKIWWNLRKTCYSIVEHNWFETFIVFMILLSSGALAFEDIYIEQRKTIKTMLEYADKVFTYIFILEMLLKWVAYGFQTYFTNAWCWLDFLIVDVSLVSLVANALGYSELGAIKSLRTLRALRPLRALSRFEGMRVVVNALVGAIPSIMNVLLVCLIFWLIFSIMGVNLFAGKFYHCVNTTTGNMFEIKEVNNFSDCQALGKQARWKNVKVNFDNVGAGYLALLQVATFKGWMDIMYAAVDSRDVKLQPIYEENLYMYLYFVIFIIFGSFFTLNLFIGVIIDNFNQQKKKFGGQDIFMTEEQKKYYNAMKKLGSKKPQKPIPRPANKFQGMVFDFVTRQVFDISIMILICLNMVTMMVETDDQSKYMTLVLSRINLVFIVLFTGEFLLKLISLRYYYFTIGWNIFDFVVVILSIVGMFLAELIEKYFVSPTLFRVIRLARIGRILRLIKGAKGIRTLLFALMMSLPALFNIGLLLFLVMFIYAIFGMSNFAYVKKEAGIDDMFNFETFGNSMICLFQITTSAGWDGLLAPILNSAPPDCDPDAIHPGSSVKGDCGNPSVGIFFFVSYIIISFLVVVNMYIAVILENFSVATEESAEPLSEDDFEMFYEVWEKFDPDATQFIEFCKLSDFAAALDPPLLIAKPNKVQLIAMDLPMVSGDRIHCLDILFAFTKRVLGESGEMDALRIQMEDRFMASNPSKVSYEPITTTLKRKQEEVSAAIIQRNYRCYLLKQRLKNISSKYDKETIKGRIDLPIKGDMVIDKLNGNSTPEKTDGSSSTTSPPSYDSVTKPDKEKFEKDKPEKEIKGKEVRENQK

With `CC1(O)CC23CC(O)C4(O)C(CC(O)C4(C)C)C(C)(O)C2CCC1C3O` (stereo not shown) [grayanotoxin III] the “Lifting/licking response (total flinches) after injection” value (male CD1 mice; mouse, in vivo) was “produced a lifting/licking response”, the “Activation of hNaV1.7” value (hNaV1.7) was “activated hNaV1.7; also recorded: activated NaV1.7” and the “Voltage at which sodium currents start to activate” value (hNaV1.7) was −95 mV.

With `COc1ccc2cc([C@H](C)C(=O)O)ccc2c1` [Naproxen, naproxen] the “Significant Reversal of Edema” value (male rats) was “No”.

With `CC1(C)[C@H](C(=O)O[C@H](C#N)c2cccc(Oc3ccccc3)c2)[C@@H]1C=C(Br)Br` [deltamethrin] the “Lifting/licking response (total flinches) after injection” value (male CD1 mice; male CD1 mice, 10 microgram suspension dose of deltamethrin) was “produced a lifting/licking response”.

In the case of `NC1=N[C@H](O)[C@H]2[C@H]3O[C@]4(O)O[C@@H]([C@@H](O)[C@@]2(N1)[C@@H]4O)[C@]3(O)CO` [TTX, tetrodotoxin], the IC50 (NaV1.6) is given as 1 nM, the IC50 (NaV1.3) is given as 2 to 15 nM and the IC50 (NaV1.4) is given as 5 nM. For the same compound, the IC50 (NaV1.8) was greater than 50000 nM and the IC50 (NaV1.7 [1]) was 4 nM.

In the case of `CNCC[C@H](Oc1cccc2ccccc12)c1cccs1` [Duloxetine, duloxetine], the “Inhibition of veratridine-induced pain-like behaviors (licking and paw-flinching)” value (“Inhibition” for short) (male rats) is reported as “inhibited somewhat” and the “Significant Reversal of Edema” value (male rats) is reported as “No”.

For `COc1ccc(C(=O)O[C@H]2CC[C@@]3(C)[C@@H]4CC[C@@H]5C3(C[C@@]3(O)[C@@H]6CN7C[C@@H](C)CC[C@H]7[C@@](C)(O)[C@@]6(O)[C@@H](O)C[C@@]53O)O[C@]24O)cc1OC` [veratridine, 4α,9-Epoxy-3β-veratroyloxy-5β-cevan-4β,12,14,16β,17,20-hexaol], the “Lifting behavior after i.pl. injection” value (male CD1 mice; mouse, in vivo) was “caused equivalent lifting behavior”, the “Pain-related behaviors (paw lifting/licking, flinching) after injection into the paw” value (male rats) was “caused two separate pain-related behaviors” and the “Side effects at higher doses” value (male rats) was “variable neurological side effects”. For the same compound, the “Flinching response to paw injection” value (NaV1.7 [2]; global NaV1.7 knockout mice) was “no flinching or licking behavior; also recorded: no effect; also recorded: no response” and the “Flinching response to paw injection” value (NaV1.7 [2]; wild type heterozygote mice) was “robust flinching behavior; also recorded: robust flinching response”.

With `NCC1(CC(=O)O)CCCCC1` [Gabapentin, gabapentin] the “Inhibition” value (male rats) was “not all” and the “Significant Reversal of Edema” value (male rats) was “No”.

With `CN1C(=O)CN=C(c2ccccc2)c2cc(Cl)ccc21` [Diazepam] the “Inhibition” value (male rats) was “ineffective”, the “Significant Reversal of Edema” value (male rats) was “No” and the “Significant Reversal of Flinching” value (male rats) was “No”. The “Significant Reversal of Lifting” value (male rats) was “No”.

In the case of `CN1CC[C@]23c4c5ccc(O)c4O[C@H]2[C@@H](O)C=C[C@H]3[C@H]1C5` [Morphine, morphine], the “Inhibition” value (male rats) is reported as “inhibited somewhat” and the “Significant Reversal of Edema” value (male rats) is reported as “No”.

With `Cc1cccc(C)c1OCC(C)N` (stereo not shown) [Mexiletine, mexiletine] the “Block of effects of veratridine (total lifting time)” value (male CD1 mice; mouse, in vivo, ip, 30 mg/kg) was “blocked”, the “Prevention of lifting/licking response to deltamethrin” value (male CD1 mice; mouse, in vivo, ip, 30 mg/kg) was “prevented the lifting/licking response” and the “Prevention of lifting/licking response to grayanotoxin III” value (male CD1 mice; mouse, in vivo, ip, 30 mg/kg) was “prevented the lifting/licking response”. The “Inhibition” value (male rats) was “inhibited fully”, the “Significant Reversal of Edema” value (male rats) was “Yes” and the “Significant Reversal of Flinching” value (male rats) was “Yes”. For the same compound, the “Significant Reversal of Lifting” value (male rats) was “Yes”, the “Lifting and flinching behaviors” value (male rats; po) was “prevented in a dose-dependent manner” and the “Prevention of veratridine-induced flinching / lifting/licking” value (NaV1.7 [2]; mouse, in vivo) was “prevents the flinching behavior; also recorded: prevented flinching”.
